From PubChem BioAssay (NCI)
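Cultured in 96-well plates, cells were exposed to test compound for 48 hours across five concentrations. At the GI50, growth is halved. TGI: total growth inhibition.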

Columns and labels:
Assay in all cases: NCI anticancer screen, dose series, 48 h
SK-MEL-5 melanoma = system: SK-MEL-5 melanoma
HOP-92 NSCLC = system: HOP-92 NSCLC
OVCAR-3 ovarian = system: OVCAR-3 ovarian
M14 melanoma = system: M14 melanoma
UO-31 renal = system: UO-31 renal
PC-3 prostate = system: PC-3 prostate
SF-295 CNS = system: SF-295 CNS
NCI/ADR-RES ovarian = system: NCI/ADR-RES ovarian
MDA-MB-231 breast = system: MDA-MB-231 breast
T-47D breast = system: T-47D breast

Q: Which GI50 (SK-MEL-5 melanoma) does the source give for `c1cc2ccc1CNCCN1CCNCc3ccc(cc3)Oc3ccc(cc3)CNCCN(CCNCc3ccc(cc3)O2)CCNCc2ccc(cc2)Oc2ccc(cc2)CNCC1` here?
A: The GI50 was 2260 nM.

Q: What about the TGI (SK-MEL-5 melanoma) of the same molecule?
A: Its TGI is 5190 nM.

Q: What about the GI50 (HOP-92 NSCLC) of the same molecule?
A: The GI50 was 20.2 nM.

Q: What about the TGI (HOP-92 NSCLC) of the same molecule?
A: Its TGI is 50.1 nM.

Q: And the GI50 (OVCAR-3 ovarian)?
A: The GI50 was 1650 nM.

Q: What about the TGI (OVCAR-3 ovarian) of the same molecule?
A: The TGI was 3050 nM.

Q: And the GI50 (M14 melanoma)?
A: Its GI50 is 1700 nM.

Q: What about the TGI (M14 melanoma) of the same molecule?
A: Its TGI is 3380 nM.

Q: What about the GI50 (UO-31 renal) of the same molecule?
A: The GI50 was 11300 nM.

Q: What about the TGI (UO-31 renal) of the same molecule?
A: The TGI was 26400 nM.

Q: And the GI50 (PC-3 prostate)?
A: The GI50 was 358 nM.

Q: What about the TGI (PC-3 prostate) of the same molecule?
A: Its TGI is 1240 nM.

Q: And the GI50 (SF-295 CNS)?
A: The GI50 was 1760 nM.

Q: And the TGI (SF-295 CNS)?
A: The TGI was 3180 nM.

Q: What about the GI50 (NCI/ADR-RES ovarian) of the same molecule?
A: Its GI50 is 16700 nM.

Q: And the TGI (NCI/ADR-RES ovarian)?
A: Its TGI is 63500 nM.

Q: And the GI50 (MDA-MB-231 breast)?
A: The GI50 was 521 nM.

Q: And the TGI (MDA-MB-231 breast)?
A: The TGI was 1750 nM.

Q: What about the GI50 (T-47D breast) of the same molecule?
A: Its GI50 is 1630 nM.

Q: And the TGI (T-47D breast)?
A: The TGI was 3610 nM.
